Calls of active or inactive are those of the source. The rule behind the calls is not given here.
Legend:
Vero = assay: Inhibition of helicase activity of West Nile virus NTPase/helicase expressed in Vero E6 cells using RNA substrate; assay type: cell-based
[1] = tested on: Japanese encephalitis virus; assay: Inhibition of helicase activity of Japanese encephalitis virus NTPase/helicase expressed in Escherichia coli using RNA substrate
[2] = Inhibition of helicase activity of Hepatitis C virus NTPase/helicase expressed in Escherichia coli using DNA substrate; design: species or system Hepacivirus hominis
Dengue virus = assay: Inhibition of helicase activity of Dengue virus NTPase/helicase expressed in Escherichia coli using RNA substrate
Hepacivirus hominis = assay: Inhibition of helicase activity of Hepatitis C virus NTPase/helicase expressed in Escherichia coli using RNA substrate
[3] = Inhibition of helicase activity of Dengue virus NTPase/helicase expressed in Escherichia coli using DNA substrate
[4] = Inhibition of helicase activity of Japanese encephalitis virus NTPase/helicase expressed in Escherichia coli using DNA substrate
[5] = Inhibition of helicase activity of West Nile virus NTPase/helicase expressed in Vero E6 cells using DNA substrate; assay type: cell-based

With `NC(=O)c1ncn([C@@H]2O[C@H](CO)[C@@H](O)[C@H]2O)c1C1N=C(N)NC(N)=N1` the Activity (Vero) was “inactive”, the Activity [1] was “inactive” and the IC50 [2] was 37 µM. For the same compound, the Activity (Dengue virus) was “inactive”, the Activity (Hepacivirus hominis) was “inactive” and the IC50 [3] was > 430 µM. The IC50 [4] was > 500 µM and the IC50 [5] was 23 µM.
